# Tests used:
# PANC-1-luc cells = assay: Sensitisation of tumour cells to in-vitro TNF attack (luciferase-based killing assay); assay type: cell-based, human; details: compound plus rHuTNF (10 ng/mL) vs compound alone; FIG. 6
# Experimental: R&D Systems), and also the speed of onset of this effect. PANC1-luc is an HLA-A2.1+ luciferase-expressing pancreatic adenocarcinoma (PDAC) tumour cell line, and […]-A2-luc is an HLA-A2.1+ luciferase-expressing melanoma tumour cell line. […] After lysis, luciferase assay buffer is added and immediately the luciferase intensity was measured by using the TECAN-Spark microplate reader. The PANC1-luc cell line is constructed as follows: PANC-1 cells acquired from the American Type Cell Culture (ATCC). Tumour cells are transfected with a pEGFP-Luc plasmid, using TransIT-LT1 (Mirus) as transfection reagent. Transfected cells are selected with 1 mg/mL of G418/Geneticin, and 14 days after selection EGFP+ cells are sorted using, eg a BD […] II cell sorter.
# K562 CML cells = details: similar study, cited from earlier work
# JAK1 aa583-1154 wt = biological target: T1, JAK1 aa583-1154 wt (Homo sapiens, UniProt P23458); assay: Kinase Profiler single-point (1 uM) inhibition; assay type: biochemical
# T1 construct: JAK1 aa583-1154 wt; purchased ProQinase
# RAF1 = biological target: T2, RAF1 (Homo sapiens, UniProt P04049, Y340D/Y341D); assay: Kinase Profiler single-point (1 uM) inhibition; assay type: biochemical; details: 1 uM compound, read-out: residual activity class (FIG. 3)
# T2 construct: purchased ProQinase, Freiburg, Germany (Kinase Profiler service)
# KU812 tumours = details: large KU812 tumours; 50 mg/kg/day for 5 days; cited from earlier work
# SIK2 = biological target: T3, SIK2 (Homo sapiens, UniProt Q9H0K1); assay: 33PanQinase radiometric protein kinase assay (IC50); assay type: biochemical
# T3 construct: purchased ProQinase
# Experimental: (§1) Incorporation of 33Pi was determined with a microplate scintillation counter (Microbeta, Wallac).
# SIK3 = biological target: T4, SIK3 (Homo sapiens, UniProt Q9Y2K2); assay: as above; assay type: biochemical
# T4 construct: purchased ProQinase
# Experimental: as §1
# SIK1 = biological target: T5, SIK1 (Homo sapiens, UniProt P57059); assay: as above; assay type: biochemical
# T5 construct: purchased ProQinase
# Experimental: as §1
# M579-A2-luc cells = assay: Sensitisation of tumour cells to in-vitro TNF attack (luciferase-based viability readout); assay type: cell-based, human; details: TNF 10 ng/mL; compound between about 10 and 100 nM; FIG. 7
# Experimental: PANC1-luc is an HLA-A2.1+ luciferase-expressing pancreatic adenocarcinoma (PDAC) tumour cell line, and M579-A2-luc is an HLA-A2.1+ luciferase-expressing melanoma tumour cell line.
# After lysis, luciferase assay buffer is added and immediately the luciferase intensity was measured by using the TECAN-Spark microplate reader.
# MDR1 = assay: in vitro; details: dog, MDCK-MDR1
# in vitro = details: dog, MDCK
# [1] = Human liver microsomal stability; assay type: in vitro ADME
# [2] = Mouse liver microsomal stability; assay type: in vitro ADME; details: liver microsomes, read-out: Intrinsic clearance
# ABL1 wt = biological target: T6, ABL1 wt (Homo sapiens, UniProt P00519); assay: 33PanQinase radiometric protein kinase assay (IC50); assay type: biochemical
# T6 construct: the ABL1 wild-type protein (amino acids P118-S525); purchased ProQinase
# T6 sequence (P00519 118-535 limits assumed): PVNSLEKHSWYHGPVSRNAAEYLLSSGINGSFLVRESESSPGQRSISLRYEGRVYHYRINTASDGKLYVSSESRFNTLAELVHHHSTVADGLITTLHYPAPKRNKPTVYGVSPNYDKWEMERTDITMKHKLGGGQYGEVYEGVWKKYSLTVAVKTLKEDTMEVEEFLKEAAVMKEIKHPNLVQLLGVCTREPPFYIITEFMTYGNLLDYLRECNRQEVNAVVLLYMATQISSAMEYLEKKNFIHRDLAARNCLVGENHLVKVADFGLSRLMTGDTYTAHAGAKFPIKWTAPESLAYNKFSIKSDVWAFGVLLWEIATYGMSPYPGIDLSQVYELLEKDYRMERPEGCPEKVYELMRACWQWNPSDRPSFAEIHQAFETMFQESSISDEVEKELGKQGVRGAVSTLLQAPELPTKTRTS
# Experimental: as §1
# SRC = biological target: T7, SRC (Homo sapiens, UniProt P12931); assay: as above; assay type: biochemical
# T7 construct: GST; HIS; purchased ProQinase (inferred from the trademark)
# Experimental: as §1
# K562 human CML tumours = details: high doses; cited from earlier work
# T5 sequence (P57059 whole entry): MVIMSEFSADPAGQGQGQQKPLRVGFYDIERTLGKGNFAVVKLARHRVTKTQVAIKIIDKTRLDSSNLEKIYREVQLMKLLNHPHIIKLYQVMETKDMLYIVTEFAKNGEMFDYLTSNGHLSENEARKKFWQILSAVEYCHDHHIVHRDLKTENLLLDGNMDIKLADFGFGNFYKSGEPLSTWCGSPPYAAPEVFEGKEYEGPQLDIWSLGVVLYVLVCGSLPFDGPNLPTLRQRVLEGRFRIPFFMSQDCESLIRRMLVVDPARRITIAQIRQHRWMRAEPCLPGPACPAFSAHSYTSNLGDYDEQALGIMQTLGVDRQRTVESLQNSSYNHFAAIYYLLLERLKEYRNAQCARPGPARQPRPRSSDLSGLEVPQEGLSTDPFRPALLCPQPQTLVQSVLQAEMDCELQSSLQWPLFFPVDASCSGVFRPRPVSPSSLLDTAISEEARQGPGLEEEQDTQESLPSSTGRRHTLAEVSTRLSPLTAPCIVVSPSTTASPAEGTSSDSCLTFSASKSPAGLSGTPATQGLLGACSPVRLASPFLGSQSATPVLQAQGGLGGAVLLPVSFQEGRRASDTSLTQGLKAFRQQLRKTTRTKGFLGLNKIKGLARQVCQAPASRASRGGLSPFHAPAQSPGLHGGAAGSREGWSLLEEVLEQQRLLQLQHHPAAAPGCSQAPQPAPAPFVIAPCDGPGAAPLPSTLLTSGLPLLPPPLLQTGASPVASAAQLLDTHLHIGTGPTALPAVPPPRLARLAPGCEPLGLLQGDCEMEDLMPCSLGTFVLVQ
# T3 sequence (Q9H0K1 whole entry): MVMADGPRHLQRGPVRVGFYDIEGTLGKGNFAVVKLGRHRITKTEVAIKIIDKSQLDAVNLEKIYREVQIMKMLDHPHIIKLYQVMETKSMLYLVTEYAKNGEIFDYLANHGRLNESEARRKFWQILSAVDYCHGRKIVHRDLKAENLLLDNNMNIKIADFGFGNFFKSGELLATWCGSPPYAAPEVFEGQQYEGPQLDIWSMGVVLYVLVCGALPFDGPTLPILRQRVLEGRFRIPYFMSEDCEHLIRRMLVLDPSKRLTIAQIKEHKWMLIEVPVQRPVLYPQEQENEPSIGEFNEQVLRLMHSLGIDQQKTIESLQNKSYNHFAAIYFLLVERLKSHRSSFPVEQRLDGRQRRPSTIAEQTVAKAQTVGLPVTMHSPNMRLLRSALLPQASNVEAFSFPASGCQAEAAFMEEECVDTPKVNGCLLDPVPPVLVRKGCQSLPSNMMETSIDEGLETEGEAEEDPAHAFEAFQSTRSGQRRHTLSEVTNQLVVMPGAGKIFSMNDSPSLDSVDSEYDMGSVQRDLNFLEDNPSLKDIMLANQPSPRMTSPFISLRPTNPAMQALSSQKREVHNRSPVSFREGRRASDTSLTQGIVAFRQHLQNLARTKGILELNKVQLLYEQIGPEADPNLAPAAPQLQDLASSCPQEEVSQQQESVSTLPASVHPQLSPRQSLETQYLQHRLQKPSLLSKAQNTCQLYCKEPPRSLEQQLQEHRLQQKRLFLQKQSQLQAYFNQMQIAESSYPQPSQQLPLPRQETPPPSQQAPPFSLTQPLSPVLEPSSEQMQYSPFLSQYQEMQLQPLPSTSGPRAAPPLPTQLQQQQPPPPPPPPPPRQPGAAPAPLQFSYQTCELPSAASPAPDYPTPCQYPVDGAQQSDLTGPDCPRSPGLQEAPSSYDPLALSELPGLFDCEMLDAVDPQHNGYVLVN
# T4 sequence (Q9Y2K2 whole entry): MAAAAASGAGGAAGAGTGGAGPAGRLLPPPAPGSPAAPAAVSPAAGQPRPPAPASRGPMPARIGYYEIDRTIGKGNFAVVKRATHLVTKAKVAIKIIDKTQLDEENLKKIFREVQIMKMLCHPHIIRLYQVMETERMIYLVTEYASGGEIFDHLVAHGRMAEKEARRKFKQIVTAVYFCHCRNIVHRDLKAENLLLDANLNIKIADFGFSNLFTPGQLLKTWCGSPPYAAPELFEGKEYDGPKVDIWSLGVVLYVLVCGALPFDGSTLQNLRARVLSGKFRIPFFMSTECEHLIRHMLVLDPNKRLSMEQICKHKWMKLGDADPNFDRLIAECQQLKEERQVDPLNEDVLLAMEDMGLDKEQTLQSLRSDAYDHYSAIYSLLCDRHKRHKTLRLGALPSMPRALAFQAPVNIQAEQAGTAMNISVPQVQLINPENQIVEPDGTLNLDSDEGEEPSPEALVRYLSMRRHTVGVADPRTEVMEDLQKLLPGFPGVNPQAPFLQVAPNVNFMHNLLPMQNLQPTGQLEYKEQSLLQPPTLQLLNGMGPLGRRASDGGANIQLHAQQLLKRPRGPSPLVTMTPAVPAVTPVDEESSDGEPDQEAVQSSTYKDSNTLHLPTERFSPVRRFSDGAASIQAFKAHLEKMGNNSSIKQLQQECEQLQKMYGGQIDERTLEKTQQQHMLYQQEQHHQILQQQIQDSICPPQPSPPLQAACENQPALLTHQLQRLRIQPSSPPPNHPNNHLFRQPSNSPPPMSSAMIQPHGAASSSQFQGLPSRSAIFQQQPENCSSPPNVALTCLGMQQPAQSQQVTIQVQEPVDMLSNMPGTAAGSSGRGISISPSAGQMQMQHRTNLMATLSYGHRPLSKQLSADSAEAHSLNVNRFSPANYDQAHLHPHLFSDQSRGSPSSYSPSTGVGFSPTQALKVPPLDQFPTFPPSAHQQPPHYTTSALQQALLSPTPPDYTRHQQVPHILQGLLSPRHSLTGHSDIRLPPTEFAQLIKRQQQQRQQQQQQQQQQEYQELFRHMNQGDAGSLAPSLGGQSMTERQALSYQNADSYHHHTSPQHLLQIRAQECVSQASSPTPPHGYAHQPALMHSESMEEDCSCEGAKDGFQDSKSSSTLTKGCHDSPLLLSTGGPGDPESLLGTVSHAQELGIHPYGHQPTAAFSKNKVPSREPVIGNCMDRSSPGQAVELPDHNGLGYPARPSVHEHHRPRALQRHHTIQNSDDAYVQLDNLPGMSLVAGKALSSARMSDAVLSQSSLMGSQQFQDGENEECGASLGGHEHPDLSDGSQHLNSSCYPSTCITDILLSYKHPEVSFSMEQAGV
# T2 sequence (P04049 307-648 Y340D/Y341D limits assumed): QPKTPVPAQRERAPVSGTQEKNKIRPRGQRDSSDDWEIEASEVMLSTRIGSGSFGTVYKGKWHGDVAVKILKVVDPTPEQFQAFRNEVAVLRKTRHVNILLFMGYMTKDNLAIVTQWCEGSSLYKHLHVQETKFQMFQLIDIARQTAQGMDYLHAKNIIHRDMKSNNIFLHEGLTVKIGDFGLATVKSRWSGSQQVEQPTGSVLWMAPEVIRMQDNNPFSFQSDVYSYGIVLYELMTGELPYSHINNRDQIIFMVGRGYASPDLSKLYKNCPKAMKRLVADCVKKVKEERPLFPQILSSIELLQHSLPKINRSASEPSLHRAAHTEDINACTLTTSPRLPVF
# T1 sequence (P23458 583-1154): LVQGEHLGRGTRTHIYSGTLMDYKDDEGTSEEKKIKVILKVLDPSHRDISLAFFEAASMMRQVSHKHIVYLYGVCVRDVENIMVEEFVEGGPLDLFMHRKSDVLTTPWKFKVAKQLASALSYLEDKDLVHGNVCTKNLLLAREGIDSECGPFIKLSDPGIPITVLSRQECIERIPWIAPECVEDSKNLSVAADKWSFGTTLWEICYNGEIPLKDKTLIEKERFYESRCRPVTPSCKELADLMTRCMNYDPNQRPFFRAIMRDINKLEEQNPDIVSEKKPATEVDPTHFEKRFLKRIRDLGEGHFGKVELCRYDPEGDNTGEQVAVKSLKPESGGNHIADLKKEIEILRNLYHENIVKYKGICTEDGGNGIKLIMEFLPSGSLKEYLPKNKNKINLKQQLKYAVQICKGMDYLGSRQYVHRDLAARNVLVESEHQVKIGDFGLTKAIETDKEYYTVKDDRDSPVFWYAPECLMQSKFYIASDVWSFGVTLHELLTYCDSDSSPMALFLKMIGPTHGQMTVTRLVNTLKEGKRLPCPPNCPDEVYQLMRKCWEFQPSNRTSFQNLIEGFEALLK
# T7 sequence (P12931 whole entry): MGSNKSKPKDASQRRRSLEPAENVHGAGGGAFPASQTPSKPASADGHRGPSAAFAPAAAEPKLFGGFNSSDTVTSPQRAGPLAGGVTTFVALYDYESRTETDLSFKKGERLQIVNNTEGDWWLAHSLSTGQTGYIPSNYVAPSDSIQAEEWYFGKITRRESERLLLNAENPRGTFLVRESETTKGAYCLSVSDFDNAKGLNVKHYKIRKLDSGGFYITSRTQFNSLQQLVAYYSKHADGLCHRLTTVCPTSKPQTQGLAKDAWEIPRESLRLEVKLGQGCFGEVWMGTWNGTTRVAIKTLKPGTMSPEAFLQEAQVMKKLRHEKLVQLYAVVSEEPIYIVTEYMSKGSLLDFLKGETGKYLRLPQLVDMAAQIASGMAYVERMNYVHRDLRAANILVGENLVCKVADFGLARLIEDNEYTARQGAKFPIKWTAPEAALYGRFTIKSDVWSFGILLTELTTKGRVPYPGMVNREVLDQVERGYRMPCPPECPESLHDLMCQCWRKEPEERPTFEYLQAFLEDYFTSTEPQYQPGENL
structure (smiles),measurement,setting,value
"Cc1nc(Nc2ncc(C(=O)Nc3c(C)cccc3Cl)s2)cc(N2CCN(CCO)CC2)n1 [Compound A8, N-(2-chloro-6-methylphenyl)-2-((6-(4-(2-hydroxyethyl)piperazin-1-yl)-2-methylpyrimidin-4-yl)amino)thiazole-5-carboxamide]",sensitisation of tumour cells to TNF attack,PANC-1-luc cells,sensitisation of tumour-cells to in-vitro TNF-attack
same,survival,K562 CML cells; 10 and 30 mg/kg/day,increased survival
same,Residual activity (%) at 1 uM,JAK1 aa583-1154 wt,41%
same,remaining activity at 1 µM,RAF1,< 25%
same,tumour response,KU812 tumours,curative
"Cc1nc(Nc2ncc(C(=O)Nc3c(Cl)cccc3Br)s2)cc(N2CCN(CCO)CC2)n1 [Compound B1, N-(2-bromo-6-chlorophenyl)-2-((6-(4-(2-hydroxyethyl)piperazin-1-yl)-2-methylpyrimidin-4-yl)amino)thiazole-5-carboxamide]",inhibitory activity,SIK2,pan-SIK and ABL1 & SRC inhibitor
same,inhibitory activity,SIK3,pan-SIK and ABL1 & SRC inhibitor
same,inhibitory activity,SIK1,pan-SIK and ABL1 & SRC inhibitor
same,tumour cell cytotoxicity with TNF compared to inhibitor alone,M579-A2-luc cells,increased cytotoxicity
"Cc1nc(Nc2ncc(C(=O)Nc3c(Cl)ccnc3C)s2)cc(N2CCN(CCO)CC2)n1 [Compound B3, N-(4-chloro-2-methylpyridin-3-yl)-2-((6-(4-(2-hydroxyethyl)piperazin-1-yl)-2-methylpyrimidin-4-yl)amino)thiazole-5-carboxamide]",sensitisation of tumour cells to TNF attack,PANC-1-luc cells,sensitisation of tumour-cells to in-vitro TNF-attack
same,Papp A→B,MDR1,< 0.8 ×10⁻⁶ cm/s
same,Papp B→A,MDR1,20 ×10⁻⁶ cm/s
same,Papp A→B,in vitro,6.8 ×10⁻⁶ cm/s
same,Papp B→A,in vitro,20 ×10⁻⁶ cm/s
same,"drug remaining at 40 min, times more than dasatinib",[1]; hLM assay,10 times
same,"half-life, times longer than dasatinib",[1]; hLM assay,~6 times
same,microsomal CLint,"[1]; liver microsomes, human liver microsomal stability, read-out: Intrinsic clearance",24 µL/min/mg
same,microsomal CLint,[2],22 µL/min/mg
"COc1c(F)cccc1NC(=O)c1cnc(Nc2cc(N3CCN(CCO)CC3)nc(C)n2)s1 [Compound B4, N-(3-fluoro-2-methoxyphenyl)-2-((6-(4-(2-hydroxyethyl)piperazin-1-yl)-2-methylpyrimidin-4-yl)amino)thiazole-5-carboxamide]",inhibitory activity,SIK2,strong inhibitor or SIK1 and SIK2
same,inhibitory activity,SIK3,weak inhibitor of SIK3
same,inhibitory activity,SIK1,strong inhibitor or SIK1 and SIK2
same,inhibitory activity,ABL1 wt,potent inhibitor of ABL1 & SRC
same,inhibitory activity,SRC,potent inhibitor of ABL1 & SRC
same,tumour cell cytotoxicity with TNF compared to inhibitor alone,M579-A2-luc cells,fails to exhibit cytotoxicity
"CCOc1cccc(Cl)c1NC(=O)c1cnc(Nc2cc(N3CCN(CCO)CC3)nc(C)n2)s1 [Compound B8, N-(2-Chloro-6-ethoxyphenyl)-2-((6-(4-(2-hydroxyethyl)piperazin-1-yl)-2-methylpyrimidin-4-yl)amino)thiazole-5-carboxamide]",inhibitory activity,SIK2,low inhibitory activity against SIK family members
same,inhibitory activity,SIK3,low inhibitory activity against SIK family members
same,inhibitory activity,SIK1,low inhibitory activity against SIK family members
same,tumour cell cytotoxicity with TNF compared to inhibitor alone,M579-A2-luc cells,fails to exhibit cytotoxicity
Cc1ccc(NC(=O)c2ccc(CN3CCN(C)CC3)cc2)cc1Nc1nccc(-c2cccnc2)n1 [imatinib],intracranial tumour growth,K562 CML cells; 200 mg/kg/day,failed to inhibit intracranial tumour growth
same,tumour response,K562 human CML tumours,failed to produce a comparative response
